Source: ChEMBL document CHEMBL4483862, “Open-source discovery of chemical leads for next-generation chemoprotective antimalarials” (2018)

System: Plasmodium berghei
Experiment: Luciferase/luciferin-expressing antifolate-resistant parasites were used to infect a culture of HepG2 cells that were pre-incubated with compounds. Infected hepatocytes emit light due to the luciferase reaction. Assay results are presented as the percent inhibition of light emission compared to control. […]
Type: functional
Settings: sporozoite; for IC90: read-out: LUCIFERASE INFECTION ASSAY - IC90
[1] = PBLUC_HILL_SLOPE 3.04, PBLUC_R_SQUARED 0.101, read-out: LUCIFERASE INFECTION ASSAY - IC50
[2] = PBLUC_HILL_SLOPE 3, PBLUC_R_SQUARED 0.854, read-out: LUCIFERASE INFECTION ASSAY - IC50

Compound	IC90 [µM]	other results
COc1ccc(-c2c[n+]3c4n2CCCCC4=C(c2ccccc2)C3)cc1	> 10	IC50 (PBLUC_HILL_SLOPE 3.06, PBLUC_R_SQUARED 0.525, read-out: LUCIFERASE INFECTION ASSAY - IC50): 6.77 µM
NC1=NC(=O)C(Cc2ccc(OC(F)(F)F)cc2)S1 (configuration not stated)	1.02	IC50 (PBLUC_HILL_SLOPE 3.06, PBLUC_R_SQUARED 0.937, read-out: LUCIFERASE INFECTION ASSAY - IC50): 0.497 µM
CS(=O)(=O)c1ccc(-c2cnc3c(NC=O)cc(-c4ccsc4)cn23)cc1	4.59	IC50 (PBLUC_HILL_SLOPE 3.07, PBLUC_R_SQUARED 0.32, read-out: LUCIFERASE INFECTION ASSAY - IC50): 2.24 µM
N#Cc1ccc(-c2cnc3cnc(-c4cccs4)cn23)cc1	9.18	IC50 (PBLUC_HILL_SLOPE 3.09, PBLUC_R_SQUARED 0.489, read-out: LUCIFERASE INFECTION ASSAY - IC50): 4.51 µM
CC(=O)c1cccc(-c2cnc3cnc(-c4cccc(F)c4)cn23)c1	> 9.96	IC50 (PBLUC_HILL_SLOPE 3, PBLUC_R_SQUARED 0.624, read-out: LUCIFERASE INFECTION ASSAY - IC50): 7.54 µM
COc1ccc(-c2cnc3cnc(-c4cccs4)cn23)cc1	8.31	IC50 (PBLUC_HILL_SLOPE 3.03, PBLUC_R_SQUARED 0.723, read-out: LUCIFERASE INFECTION ASSAY - IC50): 4.02 µM
Cc1ccc(C)c(Nc2sc(-c3cc(=O)oc4c(C)c(C)ccc34)c(N)c2-c2nc3ccccc3s2)c1	9.38	IC50 (PBLUC_HILL_SLOPE 3.07, PBLUC_R_SQUARED 0.45, read-out: LUCIFERASE INFECTION ASSAY - IC50): 4.59 µM
COCCN1C(=O)N(Cc2cccc(OC)c2)C(=O)C12CCN(C1CCc3ccccc3C1)CC2 (configuration not stated)	> 6.91	IC50 (PBLUC_HILL_SLOPE 3.06, PBLUC_R_SQUARED 0.614, read-out: LUCIFERASE INFECTION ASSAY - IC50): 4.45 µM
COc1ccc(-c2cnc3cnc(-c4cnn(C)c4)cn23)cn1	> 10.8	IC50 (PBLUC_HILL_SLOPE 3.07, PBLUC_R_SQUARED 0.552, read-out: LUCIFERASE INFECTION ASSAY - IC50): 6.4 µM
Cc1ccc(-n2c(C)cc(C(=O)CNCc3ccccc3)c2C)cc1	> 10	IC50 [1]: 9.63 µM
CC(C)Cn1c(SCC(=O)Nc2ccccc2C(=O)OC2CC(C)CCC2C(C)C)nnc1-c1cccc(S(=O)(=O)N2CCOCC2)c1 (configuration not stated)	> 10	IC50 (PBLUC_HILL_SLOPE 3.05, PBLUC_R_SQUARED 0.72, read-out: LUCIFERASE INFECTION ASSAY - IC50): 5.79 µM
O=C(N/N=C/c1ccc(O)cc1O)c1ccc[n+]([O-])c1	0.362	IC50 [2]: 0.174 µM
CSc1ccc(-c2nccc3n[nH]c(C4CC4)c23)cc1	> 10	IC50 (PBLUC_HILL_SLOPE 3.07, PBLUC_R_SQUARED 0.601, read-out: LUCIFERASE INFECTION ASSAY - IC50): 5.61 µM
O=C(CSc1nnc(-c2c[nH]c3ccccc23)n1C1CC1)NC1CCN(Cc2ccccc2)C1 (configuration not stated)	8.82	IC50 (PBLUC_HILL_SLOPE 3.03, PBLUC_R_SQUARED 0.422, read-out: LUCIFERASE INFECTION ASSAY - IC50): 4.27 µM
Cn1c(Nc2ccccc2)nc2cnc(-c3ccc(F)c(Cl)c3)cc21	> 10	IC50 (PBLUC_HILL_SLOPE 3.09, PBLUC_R_SQUARED 0.397, read-out: LUCIFERASE INFECTION ASSAY - IC50): 7.42 µM
CNc1nc2cnc(Nc3cccc(Cl)c3)cc2n1-c1cc(OC)c(OC)c(OC)c1	4.49	IC50 (PBLUC_HILL_SLOPE 3.01, PBLUC_R_SQUARED 0.505, read-out: LUCIFERASE INFECTION ASSAY - IC50): 2.17 µM
CC(C)(C)c1ccc(CSc2nnc(-c3ccc(C(C)(C)C)cc3)n2Cc2ccco2)cc1	> 7.18	IC50 (PBLUC_HILL_SLOPE 3.03, PBLUC_R_SQUARED 0.36, read-out: LUCIFERASE INFECTION ASSAY - IC50): 5.09 µM
COc1ccc(OC)c(CCNc2nc3cnc(-c4cc(OC)c(OC)c(OC)c4)cc3n2C)c1	> 10	IC50 (PBLUC_HILL_SLOPE 3.05, PBLUC_R_SQUARED 0.174, read-out: LUCIFERASE INFECTION ASSAY - IC50): 7.61 µM
CC(C)(C)c1ccc(-c2cnc3cnc(-c4cccc(C(N)=O)c4)cn23)cc1	> 8.91	IC50 (PBLUC_HILL_SLOPE 3.04, PBLUC_R_SQUARED 0.545, read-out: LUCIFERASE INFECTION ASSAY - IC50): 6.86 µM
Cc1cccc(-c2nn(-c3ccccc3)cc2/C=C/C(=O)c2c(C)[nH]c(=O)[nH]c2=O)c1	> 10	IC50 (PBLUC_HILL_SLOPE 3.1, PBLUC_R_SQUARED 0.412, read-out: LUCIFERASE INFECTION ASSAY - IC50): 5.95 µM
CN(C)C1(CNC(=O)c2ccc(Cl)c(S(=O)(=O)N(C)c3ccc(Cl)cc3)c2)CCCCC1	> 10	IC50 (PBLUC_HILL_SLOPE 3.05, PBLUC_R_SQUARED 0.312, read-out: LUCIFERASE INFECTION ASSAY - IC50): 8.97 µM

Compound	IC90 [µM]	other results
CCCc1cc(=O)nc(SCC(=O)C23CC4CC(CC(C4)C2)C3)[nH]1	9.67	IC50 (PBLUC_HILL_SLOPE 3.05, PBLUC_R_SQUARED 0.0755, read-out: LUCIFERASE INFECTION ASSAY - IC50): 4.7 µM
CCOC(=O)c1nn(CCc2ccccc2)c2c1CN(C(=O)c1cc(C)n[nH]1)CC2	> 8.1	IC50 (PBLUC_HILL_SLOPE 3.03, PBLUC_R_SQUARED 0.7, read-out: LUCIFERASE INFECTION ASSAY - IC50): 4.26 µM
CCCc1ccc(C(=O)/C(C#N)=c2\s/c(=C\c3cccs3)c(=O)n2-c2cc(C)ccc2C)cc1	> 10	IC50 (PBLUC_HILL_SLOPE 3.09, PBLUC_R_SQUARED 0.669, read-out: LUCIFERASE INFECTION ASSAY - IC50): 6.42 µM
O=C(/C=N/Nc1ncc(C(F)(F)F)cc1Cl)c1ccccn1	> 10	IC50 (PBLUC_HILL_SLOPE 3.06, PBLUC_R_SQUARED 0.0968, read-out: LUCIFERASE INFECTION ASSAY - IC50): 8.78 µM
Cc1cc(-c2csc(NC(=O)CCc3nc4ccccc4[nH]3)n2)c(C)s1	> 10	IC50 (PBLUC_HILL_SLOPE 3, PBLUC_R_SQUARED 0.654, read-out: LUCIFERASE INFECTION ASSAY - IC50): 6.46 µM
Cc1cc(C)n(-c2nc(NCc3ccco3)cc(-c3ccccc3)n2)n1	> 9.55	IC50 (PBLUC_HILL_SLOPE 3.01, PBLUC_R_SQUARED 0.273, read-out: LUCIFERASE INFECTION ASSAY - IC50): 5.14 µM
Cn1c(Nc2ccccc2)nc2cnc(-c3ccc4ccccc4c3)cc21	> 10	IC50 (PBLUC_HILL_SLOPE 3.04, PBLUC_R_SQUARED 0.156, read-out: LUCIFERASE INFECTION ASSAY - IC50): 6.85 µM
S=c1n(CN2CCN(c3ccccc3Cl)CC2)nc(-c2cccs2)n1Cc1ccccc1	0.362	IC50 [2]: 0.174 µM
CN(Cc1ccccc1)S(=O)(=O)c1ccc(Cl)c(C(=O)Nc2nnc(C(F)(F)F)[nH]2)c1	7.66	IC50 (PBLUC_HILL_SLOPE 3.05, PBLUC_R_SQUARED 0.465, read-out: LUCIFERASE INFECTION ASSAY - IC50): 3.73 µM
CCNC(=O)c1cc2c(s1)CCC(C(C)(C)C)C2 (configuration not stated)	> 10	IC50 (PBLUC_HILL_SLOPE 3.05, PBLUC_R_SQUARED 0.267, read-out: LUCIFERASE INFECTION ASSAY - IC50): 6.74 µM
Cc1cc(C)c(CSCCNC(=O)Nc2ccccc2)c(C)c1	> 10	IC50 (PBLUC_HILL_SLOPE 3.02, PBLUC_R_SQUARED 0.314, read-out: LUCIFERASE INFECTION ASSAY - IC50): 4.91 µM
O=C(CN1CCC(C(=O)Nc2ccccc2O)CC1)Nc1nc(-c2cccc([N+](=O)[O-])c2)cs1	> 10	IC50 (PBLUC_HILL_SLOPE 3.03, PBLUC_R_SQUARED 0.0575, read-out: LUCIFERASE INFECTION ASSAY - IC50): 6.47 µM
O=[N+]([O-])c1ccc(-c2noc(CCOc3ccc(F)cc3)n2)o1	9.89	IC50 (PBLUC_HILL_SLOPE 3.03, PBLUC_R_SQUARED 0.707, read-out: LUCIFERASE INFECTION ASSAY - IC50): 4.78 µM
COc1ccc(CCN(C)CC(O)COc2ccc(C(C)(C)CC(C)(C)C)cc2)cc1OC (configuration not stated)	> 10	IC50 [1]: 9.63 µM
Cn1c(=O)c2ccc(C(=O)Nc3cccc(C(=O)Nc4cccc(C(F)(F)F)c4)c3)nc2n(C)c1=O	> 10	IC50 (PBLUC_HILL_SLOPE 3.03, PBLUC_R_SQUARED 0.059, read-out: LUCIFERASE INFECTION ASSAY - IC50): 6.54 µM
Cn1c(Nc2ccccc2)nc2cnc(Nc3ccc(Oc4ccccc4)cc3)cc21	> 10	IC50 (PBLUC_HILL_SLOPE 3.01, PBLUC_R_SQUARED 0.581, read-out: LUCIFERASE INFECTION ASSAY - IC50): 5.93 µM
O=C(Cc1csc(Cc2ccccc2)n1)N1CCc2ccc(O)cc2C1	> 10	IC50 (PBLUC_HILL_SLOPE 3.03, PBLUC_R_SQUARED 0.78, read-out: LUCIFERASE INFECTION ASSAY - IC50): 6.09 µM
COc1ccc(C2=NN(c3ccccc3)C(c3cn(-c4ccccc4)nc3-c3cccnc3)C2)cc1 (configuration not stated)	9.32	IC50 (PBLUC_HILL_SLOPE 3.03, PBLUC_R_SQUARED 0.661, read-out: LUCIFERASE INFECTION ASSAY - IC50): 4.51 µM
O=C(Nc1ccc(OC(F)(F)F)cc1)Nc1ccc2nc(-c3ccc(F)c(Cl)c3)nn2c1	> 10	IC50 (PBLUC_HILL_SLOPE 3.06, PBLUC_R_SQUARED 0.207, read-out: LUCIFERASE INFECTION ASSAY - IC50): 7.2 µM
CC(C)C(NC(=O)c1ccc(F)cc1)C(=O)NCC1Cc2ccccc21 (configuration not stated)	> 10	IC50 (PBLUC_HILL_SLOPE 3.06, PBLUC_R_SQUARED 0.302, read-out: LUCIFERASE INFECTION ASSAY - IC50): 6.96 µM
